The record followed here is patent US20120135094A1, “OREGANO AND MINT ANTI-INFLAMMATORY COMPOSITIONS AND METHODS” (RUTGERS, THE STATE UNIVERSITY OF NEW JERSEY, priority 2009, published 2012).

What all share (type): cell-based, murine
For assay [1], the system named is iNOS protein in RAW 264.7 cells. The assay can be described thus: Western Blotting of LPS-induced iNOS protein level. Particulars: test compounds 10 and 20 μg/mL, 24 h. The procedure:
(§1) FIG. 5 illustrates effects of rosmarinic acid (RosA), oleanolic acid (OA), ursolic acid (UA) and indomethacin on LPS-induced iNOS and COX-2 protein levels in RAW 264.7 cells. The cells were treated with test compounds (10 and 20 μg/mL) for 24 h. Equal amounts of total proteins (50 μg) were subjected to 10% SDS-PAGE. The expression of iNOS, COX-2 and β-actin protein was detected by Western Blot using specific antibodies. Quantification of iNOS and COX-2 protein expression was performed by densitometric analysis of the immunoblot. The values below the figure represent the relative intensity in protein expression of the bands normalized to β-actin.
(§2) RAW 264.7 cells, derived from murine macrophages, were procured from the American Type Culture Collection (Rockville, Md.). The cells were cultured in RPMI-1640 (without phenol red) supplemented with 10% endotoxin-free, heat-inactivated fetal calf serum (GIBCO, Grand Island, N.Y.), 100 units/mL penicillin, and […] streptomycin. When the RAW 264.7 cells reached a density of 2-3×10^6 cells/mL, they were activated by incubation in the medium containing E. coli LPS (lipopolysaccharide, 100 ng/mL). Various concentrations of test compounds dissolved in DMSO (dimethylsulfoxide) were combined together with LPS. The cells were treated with 0.05% DMSO as vehicle control.
(§3) The total proteins, isolated from cells after treatment with test compounds for 24 h, were extracted via addition of 200 μL of gold lysis buffer (50 mM Tris-HCl, pH 7.4; 1 mM NaF; 150 mM NaCl; 1 mM EGTA; 1 mM phenylmethanesulfonyl fluoride; 1% NP-40; and 10 μg/mL leupeptin) to the cell pellets on ice for 30 min, followed by centrifugation for 30 min at 4° C. The cytosolic fraction (supernatant) proteins were measured by Bio-Rad Protein Assay (Bio-Rad Laboratories, Munich, Germany). The samples (50 μg of proteins) were mixed with 5-fold sample buffer containing 0.3 M Tris-HCl (pH 6.8), 25% 2-mercaptoethanol, 12% sodium dodecyl sulfate (SDS), 25 mM EDTA, 20% glycerol, and 0.1% bromophenol blue. […]
On the technique in general: In western blotting, separated proteins are transferred to a membrane and probed.

Assay [2] concerns COX-2 protein in RAW 264.7 cells. Put plainly: Western Blotting of LPS-induced COX-2 protein level. Particulars: test compounds 10 and 20 μg/mL, 24 h. The procedure: as §1, §2, §3
Assay [3] relates to LPS-induced nitrite production in RAW 264.7 macrophages. Put plainly: LPS-induced nitrite production assay (Griess reaction). The following applies: concentration range of 10-100 μg/mL, dose-dependently; LPS 100 ng/mL, 24 h. The procedure:
FIG. 4 illustrates anti-inflammatory effect of rosmarinic acid (RosA), ursolic acid (UA) and oleanolic acid (OA) on LPS-induced nitrite production in RAW 264.7 macrophages. The cells were treated with 100 ng/mL of LPS only or with different concentrations of test compounds for 24 h. At the end of incubation time, 100 μL of the culture medium was collected for nitrite assay. The values are expressed as means±standard error of triplicate tests.
RAW 264.7 cells, derived from murine macrophages, were procured from the American Type Culture Collection (Rockville, Md.). The cells were cultured in RPMI-1640 (without phenol red) supplemented with 10% endotoxin-free, heat-inactivated fetal calf serum (GIBCO, Grand Island, N.Y.), 100 units/mL penicillin, and […] streptomycin. When the RAW 264.7 cells reached a density of 2-3×10^6 cells/mL, they were activated by incubation in the medium containing E. coli LPS (lipopolysaccharide, 100 ng/mL). […]
The RAW 264.7 cells were treated with various compounds and LPS or LPS only. The supernatants were harvested and the amount of nitrite, an indicator of NO synthesis, was measured using the Griess reaction. […] After incubation at room temperature for 10 min, absorbance at 570 nm was measured with the ELISA reader (Thermo Labsystems, Multiskan Ascent, Finland).
(Nitrite, measured by Griess reagent, commonly stands in for NO production.)

Consider `C[C@H]1[C@H](C)CC[C@]2(C(=O)O)CC[C@]3(C)C(=CC[C@@H]4[C@@]5(C)CC[C@H](O)C(C)(C)[C@@H]5CC[C@]43C)[C@H]12` [ursolic acid], for which the iNOS protein expression entry in assay [1] was “reduced expression of iNOS protein”. Further, in assay [2], the COX-2 protein expression entry is reported as “suppressed COX-2 protein expression”.

Regarding `CC1(C)CC[C@]2(C(=O)O)CC[C@]3(C)C(=CC[C@@H]4[C@@]5(C)CC[C@H](O)C(C)(C)[C@@H]5CC[C@]43C)[C@@H]2C1` [oleanolic acid], the iNOS protein expression result in assay [1] is on record as “reduced expression of iNOS protein”. Also, the COX-2 protein expression entry in assay [2] is recorded as “suppressed COX-2 protein expression”.

`O=C(/C=C/c1ccc(O)c(O)c1)O[C@H](Cc1ccc(O)c(O)c1)C(=O)O` [rosmarinic acid]: the “suppression of NO generation” value in assay [3] is listed as 19-100%. Further, the iNOS protein expression result in assay [1] is on record as “reduced expression of iNOS protein”. Besides, the COX-2 protein expression result in assay [2] is “suppressed COX-2 protein expression”.
